“Also recorded” adds a separate entry of the source.
How the values were obtained:
C58/J and C57BI/6J mice = experiment: Locomotor behavior of the compound on its own (stereotypy assays); type: in vivo; settings: 1, 3 and 5.6 mg/kg
Text: Data are from stereotypy assays using C58/J (left) and C57BI/6J (right) mice. […] Bar graphs show the mean±SEM.

5-HT1A receptors [1] = biological target: T1, 5-HT1A receptors (Homo sapiens, UniProt P08908); experiment: Functional assay at 5-HT1A, relative to 5-CT; type: cell-based
T1 construct: expressed in transfected cells; host or cells: HEK293, transient
T1 sequence (P08908 1-422): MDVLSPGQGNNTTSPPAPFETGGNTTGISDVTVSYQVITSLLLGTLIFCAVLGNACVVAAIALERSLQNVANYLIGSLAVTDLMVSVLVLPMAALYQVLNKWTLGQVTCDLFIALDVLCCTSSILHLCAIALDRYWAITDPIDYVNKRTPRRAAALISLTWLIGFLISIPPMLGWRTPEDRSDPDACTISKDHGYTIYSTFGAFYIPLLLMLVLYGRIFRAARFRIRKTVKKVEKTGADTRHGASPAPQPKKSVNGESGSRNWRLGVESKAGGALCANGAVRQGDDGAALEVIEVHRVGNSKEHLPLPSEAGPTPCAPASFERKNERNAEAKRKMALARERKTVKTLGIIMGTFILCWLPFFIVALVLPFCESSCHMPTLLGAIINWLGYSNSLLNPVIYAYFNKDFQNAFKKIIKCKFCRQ

C57BI/6J mice [2] = experiment: Social interactions with vehicle-treated littermates and grooming; type: in vivo; settings: 5.6 mg/kg
Text: Data are from C57BI/6J mice.
(§1) Of note, after behavioral testing was complete, blind scorers categorized mice into two groups based on number of rears and initiated social interactions, and the two groups differentiated vehicle from (+)-5-FPT-treated mice with 100% accuracy.

mice = experiment: Test for serotonin syndrome; type: in vivo; settings: 5.6 mg/kg
Text: as §1

C57BI/6J mice [3] = experiment: d-amphetamine (AMP)-elicited hyperlocomotion in C57BI/6J mice; type: in vivo; settings: 5.6 mg/kg; AMP 3 mg/kg; 30 min session
Text: (§2) Regarding glutamate neurotransmission in stereotypy, the NMDA receptor antagonist, MK-801, characteristically elicits stereotypic rotations that appear to mimic monogenetic stereotypy observed in Fmr1 KO mice. Furthermore, mutations and autoantibodies of the NMDA glutamate receptor that decrease its function are causally linked to ASD, intellectual disabilities, and psychiatric symptoms in humans.

adrenergic α1B receptor = biological target: T2, adrenergic α1B receptor (Homo sapiens, UniProt P35368); experiment: Off-target binding affinity, adrenergic α1B
T2 construct: expressed in transfected cells; host or cells: HEK293, transient
T2 sequence (P35368 1-520): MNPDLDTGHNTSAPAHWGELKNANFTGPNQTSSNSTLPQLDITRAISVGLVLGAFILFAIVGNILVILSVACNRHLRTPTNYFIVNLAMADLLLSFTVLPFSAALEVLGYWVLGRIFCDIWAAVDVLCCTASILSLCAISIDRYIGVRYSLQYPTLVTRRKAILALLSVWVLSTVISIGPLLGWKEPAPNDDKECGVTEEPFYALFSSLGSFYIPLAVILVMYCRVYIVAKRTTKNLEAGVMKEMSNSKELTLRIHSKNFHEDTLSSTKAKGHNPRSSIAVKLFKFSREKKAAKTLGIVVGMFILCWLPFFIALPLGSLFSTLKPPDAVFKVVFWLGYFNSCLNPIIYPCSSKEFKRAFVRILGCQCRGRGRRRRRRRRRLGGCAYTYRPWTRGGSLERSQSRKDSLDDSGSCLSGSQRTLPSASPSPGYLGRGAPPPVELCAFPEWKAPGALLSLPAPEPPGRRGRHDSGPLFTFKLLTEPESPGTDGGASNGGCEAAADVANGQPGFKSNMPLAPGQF

C57BI/6J mice [4] = experiment: MK-801-elicited stereotypic rotations in C57BI/6J mice; type: in vivo
Text: as §2

histamine H1 receptor = biological target: T3, histamine H1 receptor (Homo sapiens, UniProt P35367); experiment: Off-target binding affinity, histamine H1
T3 construct: expressed in transfected cells; host or cells: HEK293, transient

C57BI/6J mice [5] = experiment: MK-801-elicited hyperlocomotion in C57BI/6J mice; type: in vivo; settings: 5.6 mg/kg; MK-801 0.3 mg/kg; 30 min session
Text: Bar graphs show the mean±SEM.
as §2

C58/J mice = experiment: Idiopathic stereotypic jumping in C58/J mice; type: in vivo; settings: 1 and 3 mg/kg
[6] = Plasma and brain concentrations after subcutaneous administration; type: in vivo, mice
5-HT1A receptors [7] = biological target: T1, 5-HT1A receptors; experiment: Binding affinity, HEK293 cells transiently over-expressing human 5-HT1A
[8] = mean (SEM) sessions, score/6 possible
[9] = 30 min after 3.0 mg/kg subcutaneous, mean (SEM)
[10] = 60 min after 3.0 mg/kg subcutaneous, mean (SEM)

T3 sequence (P35367 whole entry): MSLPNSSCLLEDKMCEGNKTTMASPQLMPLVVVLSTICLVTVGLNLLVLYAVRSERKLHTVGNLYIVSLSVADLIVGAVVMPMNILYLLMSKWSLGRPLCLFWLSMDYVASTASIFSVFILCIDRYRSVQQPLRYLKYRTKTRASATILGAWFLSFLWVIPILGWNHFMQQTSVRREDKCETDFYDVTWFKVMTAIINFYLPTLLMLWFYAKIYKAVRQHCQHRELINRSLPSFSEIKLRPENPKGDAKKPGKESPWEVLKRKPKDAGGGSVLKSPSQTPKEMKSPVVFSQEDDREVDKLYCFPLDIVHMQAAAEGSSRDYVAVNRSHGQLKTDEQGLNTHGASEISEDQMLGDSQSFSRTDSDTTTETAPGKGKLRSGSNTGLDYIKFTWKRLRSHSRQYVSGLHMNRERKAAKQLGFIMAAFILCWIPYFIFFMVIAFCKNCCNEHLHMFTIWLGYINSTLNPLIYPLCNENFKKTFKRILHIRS

## CN(C)C1CCc2c(cccc2-c2ccccc2F)C1 (single isomer, unassigned; (+)) [(+)-5-FPT, 5-(2′-fluorophenyl)-N,N-dimethyl-1,2,3,4-tetrahydronaphthalen-2-amine]
C58/J and C57BI/6J mice
  Locomotor behavior, compound on its own: without altering locomotor behavior; also recorded: did not alter locomotion; also recorded: does not alter locomotor behavior
5-HT1A receptors [1]
  Functional activity at 5-HT1A, in words: partial agonist
5-HT1A receptors [1]; read-out: EMAX 5-HT1A
  Emax: 48%
C57BI/6J mice [2]
  Grooming: decreasing grooming
C57BI/6J mice [2]; six one-min observation sessions
  Social interactions: significantly increased the number of initiated social interactions; also recorded: increases social interactions
mice; mean (SEM) number of sessions of six with the behavior (score/6 possible)
  Flat Body: 0(0)
mice; [8]
  Forepaw Tread: 0(0)
  Head Weave: 0(0)
  Moon Walk: 0.3(0.2)
  Piloerection: 0(0)
  Straub Tail: 0(0)
  Tremor: 0(0)
mice; highest behaviorally-effective dose tested
  Symptoms of serotonin syndrome, in words: did not result in symptoms of serotonin syndrome
C57BI/6J mice [3]
  Amphetamine (AMP) hyperlocomotion: did not reduce hyperlocomotion; also recorded: did not significantly decrease hyperlocomotion
Adrenergic α1B receptor
  Ki: > 10 µM
C57BI/6J mice [4]
  Stereotypic rotational behavior, compound on its own: neither (+)-5-FPT nor AMP caused stereotypic rotational behavior
C57BI/6J mice [4]; 5.6 mg/kg, MK-801 0.3 mg/kg
  MK-801-elicited stereotypic rotations: significantly reduced stereotypical rotations; also recorded: significantly reduces stereotypic rotations
Histamine H1 receptor
  Ki: > 1 µM
C57BI/6J mice [5]
  MK-801 hyperlocomotion: significantly decreased hyperlocomotion; also recorded: blocks
C58/J mice
  Stereotypic jumping: potently eliminated stereotypic jumping; also recorded: dose-dependently eliminates
[6]; 30, 60 and 90 min after systemic administration
  Blood-brain barrier crossing, in words: readily crosses the blood-brain barrier
[6]; [9]
  Brain concentration: 1.78(0.24) μg/g
  Plasma concentration: 0.114(0.03) μg/mL
[6]; [10]
  Brain concentration: 2.16(0.17) μg/g
  Plasma concentration: 0.118(0.01) μg/mL
[6]; 90 min after 3.0 mg/kg subcutaneous, mean (SEM)
  Brain concentration: 1.46(0.09) μg/g
[6]; mouse, plasma, 90 min after 3.0 mg/kg subcutaneous, mean (SEM)
  concentration at 90 min: 70 ng/mL
[6]; plasma relative to brain tissue from 30 min post-administration
  Clearance in the periphery, in words: rapidly cleared in the periphery

## CN(C)C1CCc2c(cccc2-c2ccccc2F)C1 (single isomer, unassigned; (-)) [(−)-5-FPT, 5-(2′-fluorophenyl)-N,N-dimethyl-1,2,3,4-tetrahydronaphthalen-2-amine]
Adrenergic α1B receptor
  Ki: > 10 µM
5-HT1A receptors [7]
  Affinity at 5-HT1A receptors, in words: no appreciable affinity
Histamine H1 receptor
  Ki: > 1 µM
